Source: paper PMC12525657 (Molecules, 2025)

molecular target: NP (Influenza A virus, UniProt P15682); assay: biochemical; assay type: binding
Sequence (P15682 whole entry): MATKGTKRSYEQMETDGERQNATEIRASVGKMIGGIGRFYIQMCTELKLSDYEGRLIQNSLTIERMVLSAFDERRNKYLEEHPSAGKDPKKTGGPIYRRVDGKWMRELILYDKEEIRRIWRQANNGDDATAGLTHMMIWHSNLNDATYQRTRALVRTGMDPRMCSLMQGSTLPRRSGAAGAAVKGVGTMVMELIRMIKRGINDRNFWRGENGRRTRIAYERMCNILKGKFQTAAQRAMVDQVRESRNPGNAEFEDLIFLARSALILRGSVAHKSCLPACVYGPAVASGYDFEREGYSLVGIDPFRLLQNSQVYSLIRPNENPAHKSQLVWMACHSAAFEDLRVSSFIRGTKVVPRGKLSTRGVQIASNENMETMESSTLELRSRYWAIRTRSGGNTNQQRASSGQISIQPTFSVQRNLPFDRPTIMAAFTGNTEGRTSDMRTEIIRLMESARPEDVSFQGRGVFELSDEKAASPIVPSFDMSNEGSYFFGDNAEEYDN

Row | SMILES | binding affinity for NP relative to nucleozin | Kd
1 | O=C(O)CCC(=O)N1N=C(c2c(-c3ccccc3)c3cc(Br)ccc3[nH]c2=O)C[C@@H]1c1ccc([N+](=O)[O-])cc1 [Compound 9] | higher binding affinity for NP than nucleozin | 
2 | Cc1onc(-c2ccccc2)c1C(=O)N1CCN(c2ccc([N+](=O)[O-])cc2Cl)CC1 [nucleozin, reference compound] |  | 9.73 µM
3 | COc1ccc([C@@H]2C=C(c3ccc(Cl)cc3)Nc3nc(NC(=O)CCCC(=O)O)nn32)cc1 [Compound 12] | higher binding affinity for NP than nucleozin | 
4 | O=C(O)CCC(=O)N1N=C(c2c(O)nc3ccc(Br)cc3c2-c2ccccc2)CC1c1ccco1 (centres unmarked) [Compound 1] | higher binding affinity for NP than nucleozin | 150 µM
5 | Cc1ccc([C@@H]2C=C(c3ccc(Cl)cc3)Nc3nc(NC(=O)CCCC(=O)O)nn32)cc1 [Compound 4] | higher binding affinity for NP than nucleozin | 
6 | COc1ccc(C2CC(c3c(-c4ccccc4)c4cc(Cl)ccc4[nH]c3=O)=NN2C(=O)CCC(=O)O)cc1 (centres unmarked) [Compound 8] | higher binding affinity for NP than nucleozin | 78.5 µM
7 | O=C(O)CCC(=O)Nc1nc2n(n1)C(c1ccc(Cl)cc1)C=C(c1ccc(Cl)cc1)N2 (centres unmarked) [Compound 13] | higher binding affinity for NP than nucleozin | 38.2 µM
8 | COc1ccc([C@H]2CC(c3c(-c4ccccc4)c4cc(Br)ccc4[nH]c3=O)=NN2C(=O)CCC(=O)O)cc1 [Compound 3] | higher binding affinity for NP than nucleozin | 210 µM
9 | O=C(O)CCCC(=O)Nc1nc2n(n1)[C@H](c1ccccc1)C=C(c1ccc(Cl)cc1)N2 [Compound 14] | higher binding affinity for NP than nucleozin | 69.7 µM
